Source: ChEMBL document CHEMBL3272169, “10-Hydroxy-4-methyl-2,3,4,5,6,7-hexahydro-1,6-methano-1H-4-benzazonine derivatives (homobenzomorphans) as analgesics” (J Med Chem, 1976)
Where a name gives a salt, the structure may show the parent alone.

Experiments:
[1] = test system: Mus musculus; experiment: Analgesic Activity in sc dosed albino dd mouse by tail pressure stimuli method; type: functional
[2] = Acute toxicity in iv dosed albino dd mouse; type: organism-based; details: in vivo

Structure (SMILES)	ED50 [1]	LD50 [2]
CC(O)C(=O)O.CN1CCC2CC(Cc3ccccc32)C1 (stereo unspecified)	53.1 µmol/kg	106 µmol/kg
Br.CN1CC[C@@H]2CC(Cc3ccc(O)cc32)C1	10.7 µmol/kg	121 µmol/kg
CC(O)C(=O)O.C[C@H]1C2Cc3ccc(O)cc3[C@@H]1CCN(C)C2	9.9 µmol/kg	184 µmol/kg
CC(O)C(=O)O.C[C@@H]1C2Cc3ccc(O)cc3[C@@H]1CCN(C)C2	8 µmol/kg	153 µmol/kg
CC(O)C(=O)O.CN1CC[C@]2(C)CC(Cc3ccc(O)cc32)C1	7 µmol/kg	67 µmol/kg
CC(O)C(=O)O.C[C@H]1C2Cc3ccc(O)cc3[C@]1(C)CCN(C)C2	5.2 µmol/kg	126 µmol/kg
Br.C[C@@H]1C2Cc3ccc(O)cc3[C@]1(C)CCN(C)C2	4.1 µmol/kg	113 µmol/kg
COc1ccc2c3c1O[C@H]1[C@@H](O)C=C[C@H]4[C@@H](C2)N(C)CC[C@@]341 [CODEINE PHOSPHATE]	30.7 µmol/kg	
CN1CC[C@]23c4c5ccc(O)c4O[C@H]2[C@@H](O)C=C[C@H]3[C@H]1C5 [MORPHINE HYDROCHLORIDE]	4.4 µmol/kg	
